From publication PMC3961306, “Comparison of the Cancer Gene Targeting and Biochemical Selectivities of All Targeted Kinase Inhibitors Approved for Clinical Use” (PLoS ONE, 2014)

Assays:
Assay in all cases: Kinase profiling in a biochemical assay panel (mobility shift assays and ELISA), %-inhibition at 1 μM; selectivity entropy
[1] = target: T1, panel of more than 300 wild-type and mutant kinases (313 kinase panel) (Homo sapiens, UniProt P21709); conditions: kinase EPHA1; compound at 1 μM
T1 sequence (P21709 26-976): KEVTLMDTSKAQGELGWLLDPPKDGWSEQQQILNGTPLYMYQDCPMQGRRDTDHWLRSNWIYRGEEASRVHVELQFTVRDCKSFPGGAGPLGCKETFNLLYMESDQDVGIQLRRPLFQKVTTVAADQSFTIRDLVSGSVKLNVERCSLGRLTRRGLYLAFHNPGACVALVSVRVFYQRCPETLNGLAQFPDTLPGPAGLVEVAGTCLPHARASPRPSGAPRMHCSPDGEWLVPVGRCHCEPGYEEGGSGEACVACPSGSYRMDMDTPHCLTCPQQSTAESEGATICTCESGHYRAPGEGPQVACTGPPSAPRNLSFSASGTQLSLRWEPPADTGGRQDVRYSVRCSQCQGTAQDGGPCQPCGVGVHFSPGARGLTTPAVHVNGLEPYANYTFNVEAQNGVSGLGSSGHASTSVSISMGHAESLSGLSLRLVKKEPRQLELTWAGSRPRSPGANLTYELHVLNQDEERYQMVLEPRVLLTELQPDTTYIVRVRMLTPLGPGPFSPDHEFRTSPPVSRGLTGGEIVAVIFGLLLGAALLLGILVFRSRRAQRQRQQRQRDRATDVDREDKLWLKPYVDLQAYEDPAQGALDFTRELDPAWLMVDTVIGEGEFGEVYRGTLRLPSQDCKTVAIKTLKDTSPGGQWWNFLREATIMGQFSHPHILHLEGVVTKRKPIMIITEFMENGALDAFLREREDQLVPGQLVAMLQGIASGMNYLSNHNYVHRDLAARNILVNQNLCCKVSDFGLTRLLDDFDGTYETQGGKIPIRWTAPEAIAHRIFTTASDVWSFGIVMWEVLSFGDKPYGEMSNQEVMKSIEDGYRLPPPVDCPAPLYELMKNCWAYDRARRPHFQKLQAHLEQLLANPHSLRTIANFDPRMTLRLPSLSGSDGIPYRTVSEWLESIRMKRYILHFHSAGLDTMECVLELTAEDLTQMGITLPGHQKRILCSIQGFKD

[2] = target: panel of more than 300 wild-type and mutant kinases (313 kinase panel) (Homo sapiens, UniProt P16234)
Chain of panel of more than 300 wild-type and mutant kinases (313 kinase panel) (Homo sapiens, UniProt P16234) (P16234 24-1089, change not shown): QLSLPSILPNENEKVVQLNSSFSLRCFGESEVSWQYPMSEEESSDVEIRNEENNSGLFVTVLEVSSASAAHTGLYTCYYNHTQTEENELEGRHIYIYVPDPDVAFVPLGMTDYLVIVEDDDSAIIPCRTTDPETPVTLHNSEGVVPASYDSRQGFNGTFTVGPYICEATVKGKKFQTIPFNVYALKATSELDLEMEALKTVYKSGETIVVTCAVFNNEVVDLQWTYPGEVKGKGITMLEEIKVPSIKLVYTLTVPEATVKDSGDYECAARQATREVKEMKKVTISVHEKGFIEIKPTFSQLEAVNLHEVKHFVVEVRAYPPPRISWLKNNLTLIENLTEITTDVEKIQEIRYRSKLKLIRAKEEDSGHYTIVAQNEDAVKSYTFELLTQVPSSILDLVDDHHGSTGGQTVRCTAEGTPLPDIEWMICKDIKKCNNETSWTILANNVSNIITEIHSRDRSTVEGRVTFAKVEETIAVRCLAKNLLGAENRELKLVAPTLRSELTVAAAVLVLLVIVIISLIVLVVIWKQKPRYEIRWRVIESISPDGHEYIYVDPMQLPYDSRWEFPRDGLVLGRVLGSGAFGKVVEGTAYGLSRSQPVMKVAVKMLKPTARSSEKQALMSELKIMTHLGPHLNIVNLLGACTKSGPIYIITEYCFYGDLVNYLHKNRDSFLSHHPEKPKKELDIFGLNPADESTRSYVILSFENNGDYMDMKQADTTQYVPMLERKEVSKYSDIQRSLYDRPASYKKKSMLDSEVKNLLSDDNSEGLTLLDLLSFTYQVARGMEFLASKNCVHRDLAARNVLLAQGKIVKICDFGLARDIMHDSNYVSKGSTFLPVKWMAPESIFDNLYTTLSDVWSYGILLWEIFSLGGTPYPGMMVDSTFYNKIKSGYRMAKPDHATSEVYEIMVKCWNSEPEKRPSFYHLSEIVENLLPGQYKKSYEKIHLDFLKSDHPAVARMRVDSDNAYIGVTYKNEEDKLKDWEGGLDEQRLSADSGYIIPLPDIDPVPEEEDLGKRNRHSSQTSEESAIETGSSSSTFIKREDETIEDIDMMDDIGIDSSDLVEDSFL

[3] = target: panel of more than 300 wild-type and mutant kinases (313 kinase panel) (Homo sapiens, UniProt Q13131)
Chain of panel of more than 300 wild-type and mutant kinases (313 kinase panel) (Homo sapiens, UniProt Q13131) (Q13131 whole entry, change not shown): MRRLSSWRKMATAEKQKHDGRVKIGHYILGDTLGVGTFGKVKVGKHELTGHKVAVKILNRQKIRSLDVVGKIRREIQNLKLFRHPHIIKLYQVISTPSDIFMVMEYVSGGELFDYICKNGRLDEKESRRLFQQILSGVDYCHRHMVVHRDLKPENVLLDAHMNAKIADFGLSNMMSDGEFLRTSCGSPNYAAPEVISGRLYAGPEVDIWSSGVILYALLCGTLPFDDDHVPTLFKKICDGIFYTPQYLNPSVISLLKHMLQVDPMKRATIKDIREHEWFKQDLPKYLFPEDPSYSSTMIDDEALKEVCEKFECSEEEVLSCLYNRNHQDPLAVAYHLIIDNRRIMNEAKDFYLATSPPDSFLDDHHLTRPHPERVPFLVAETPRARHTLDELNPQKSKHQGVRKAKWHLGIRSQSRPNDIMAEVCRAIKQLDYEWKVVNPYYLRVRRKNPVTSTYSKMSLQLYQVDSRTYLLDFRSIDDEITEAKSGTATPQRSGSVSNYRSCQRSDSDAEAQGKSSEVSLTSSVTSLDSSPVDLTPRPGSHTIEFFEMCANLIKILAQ

[4] = target: panel of more than 300 wild-type and mutant kinases (313 kinase panel) (Homo sapiens, UniProt P07949)
Chain of panel of more than 300 wild-type and mutant kinases (313 kinase panel) (Homo sapiens, UniProt P07949) (P07949 29-1114, change not shown): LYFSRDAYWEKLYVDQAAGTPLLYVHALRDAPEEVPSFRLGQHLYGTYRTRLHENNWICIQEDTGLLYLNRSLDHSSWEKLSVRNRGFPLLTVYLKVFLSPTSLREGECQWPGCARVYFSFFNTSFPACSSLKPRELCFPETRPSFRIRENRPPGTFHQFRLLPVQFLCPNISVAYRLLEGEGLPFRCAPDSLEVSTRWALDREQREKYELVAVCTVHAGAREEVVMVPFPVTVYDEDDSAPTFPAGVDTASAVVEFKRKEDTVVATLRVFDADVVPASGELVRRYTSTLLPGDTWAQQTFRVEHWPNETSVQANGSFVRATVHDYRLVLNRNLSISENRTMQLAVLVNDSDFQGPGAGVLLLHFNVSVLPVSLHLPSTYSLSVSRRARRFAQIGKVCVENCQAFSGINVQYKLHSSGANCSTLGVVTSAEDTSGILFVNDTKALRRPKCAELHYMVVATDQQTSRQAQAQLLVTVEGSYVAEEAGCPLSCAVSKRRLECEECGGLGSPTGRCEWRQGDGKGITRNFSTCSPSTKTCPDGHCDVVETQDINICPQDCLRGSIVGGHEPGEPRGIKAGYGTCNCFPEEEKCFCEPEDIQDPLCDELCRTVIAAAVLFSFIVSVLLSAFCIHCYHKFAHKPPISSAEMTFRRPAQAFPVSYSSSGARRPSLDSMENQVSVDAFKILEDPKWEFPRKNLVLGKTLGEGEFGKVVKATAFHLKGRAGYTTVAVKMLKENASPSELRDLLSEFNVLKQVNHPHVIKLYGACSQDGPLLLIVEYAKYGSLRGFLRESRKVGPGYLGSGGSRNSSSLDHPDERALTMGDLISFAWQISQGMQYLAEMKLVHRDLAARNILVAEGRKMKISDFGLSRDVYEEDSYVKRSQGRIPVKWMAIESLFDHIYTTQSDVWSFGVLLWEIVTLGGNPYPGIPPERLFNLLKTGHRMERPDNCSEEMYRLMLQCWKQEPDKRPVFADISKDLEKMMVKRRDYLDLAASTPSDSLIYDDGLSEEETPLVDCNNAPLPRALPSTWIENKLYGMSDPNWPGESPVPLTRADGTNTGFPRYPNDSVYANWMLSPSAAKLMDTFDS

[5] = target: panel of more than 300 wild-type and mutant kinases (313 kinase panel) (Homo sapiens, UniProt P51812); conditions: kinase RSK2; 1 μM
[6] = target: panel of more than 300 wild-type and mutant kinases (313 kinase panel) (Homo sapiens, UniProt Q13164)
[7] = target: panel of more than 300 wild-type and mutant kinases (313 kinase panel) (Homo sapiens, UniProt P07948)
[8] = target: panel of more than 300 wild-type and mutant kinases (313 kinase panel) (Homo sapiens, UniProt P54764); conditions: kinase EPHA4; compound at 1 μM
Chain of panel of more than 300 wild-type and mutant kinases (313 kinase panel) (Homo sapiens, UniProt P54764) (P54764 20-986, change not shown): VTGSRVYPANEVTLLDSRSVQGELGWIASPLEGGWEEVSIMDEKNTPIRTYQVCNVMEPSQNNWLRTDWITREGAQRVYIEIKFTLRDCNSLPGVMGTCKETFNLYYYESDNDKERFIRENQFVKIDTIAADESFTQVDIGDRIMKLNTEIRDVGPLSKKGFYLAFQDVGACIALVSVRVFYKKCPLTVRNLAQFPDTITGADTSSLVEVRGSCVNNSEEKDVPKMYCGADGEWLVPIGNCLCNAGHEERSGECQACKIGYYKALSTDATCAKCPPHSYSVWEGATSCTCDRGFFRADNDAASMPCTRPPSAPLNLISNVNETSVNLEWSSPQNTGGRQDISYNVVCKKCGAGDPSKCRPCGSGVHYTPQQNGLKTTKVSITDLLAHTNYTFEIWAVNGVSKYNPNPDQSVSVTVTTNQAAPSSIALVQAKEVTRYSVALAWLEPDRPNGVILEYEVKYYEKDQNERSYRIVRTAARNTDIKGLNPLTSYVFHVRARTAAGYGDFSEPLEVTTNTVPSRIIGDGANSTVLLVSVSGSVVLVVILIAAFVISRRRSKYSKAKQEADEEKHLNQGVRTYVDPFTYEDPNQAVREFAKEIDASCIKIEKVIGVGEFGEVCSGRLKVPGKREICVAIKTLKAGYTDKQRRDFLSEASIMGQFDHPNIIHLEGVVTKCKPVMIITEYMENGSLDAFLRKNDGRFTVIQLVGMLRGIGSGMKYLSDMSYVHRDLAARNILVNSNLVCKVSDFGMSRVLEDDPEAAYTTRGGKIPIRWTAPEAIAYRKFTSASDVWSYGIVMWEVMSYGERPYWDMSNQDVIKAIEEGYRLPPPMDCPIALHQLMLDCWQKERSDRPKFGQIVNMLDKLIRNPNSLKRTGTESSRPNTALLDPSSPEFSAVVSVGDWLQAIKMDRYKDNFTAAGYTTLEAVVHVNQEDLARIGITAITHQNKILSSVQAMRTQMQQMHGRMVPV

[9] = target: panel of more than 300 wild-type and mutant kinases (313 kinase panel) (Homo sapiens, UniProt P17948); conditions: kinase FLT1; compound at 1 μM
[10] = target: panel of more than 300 wild-type and mutant kinases (313 kinase panel) (Homo sapiens, UniProt P04629)
[11] = target: panel of more than 300 wild-type and mutant kinases (313 kinase panel) (Homo sapiens, UniProt Q9Y463); conditions: kinase DYRK1B; compound at 1 μM
Chain of panel of more than 300 wild-type and mutant kinases (313 kinase panel) (Homo sapiens, UniProt Q9Y463) (Q9Y463 whole entry, change not shown): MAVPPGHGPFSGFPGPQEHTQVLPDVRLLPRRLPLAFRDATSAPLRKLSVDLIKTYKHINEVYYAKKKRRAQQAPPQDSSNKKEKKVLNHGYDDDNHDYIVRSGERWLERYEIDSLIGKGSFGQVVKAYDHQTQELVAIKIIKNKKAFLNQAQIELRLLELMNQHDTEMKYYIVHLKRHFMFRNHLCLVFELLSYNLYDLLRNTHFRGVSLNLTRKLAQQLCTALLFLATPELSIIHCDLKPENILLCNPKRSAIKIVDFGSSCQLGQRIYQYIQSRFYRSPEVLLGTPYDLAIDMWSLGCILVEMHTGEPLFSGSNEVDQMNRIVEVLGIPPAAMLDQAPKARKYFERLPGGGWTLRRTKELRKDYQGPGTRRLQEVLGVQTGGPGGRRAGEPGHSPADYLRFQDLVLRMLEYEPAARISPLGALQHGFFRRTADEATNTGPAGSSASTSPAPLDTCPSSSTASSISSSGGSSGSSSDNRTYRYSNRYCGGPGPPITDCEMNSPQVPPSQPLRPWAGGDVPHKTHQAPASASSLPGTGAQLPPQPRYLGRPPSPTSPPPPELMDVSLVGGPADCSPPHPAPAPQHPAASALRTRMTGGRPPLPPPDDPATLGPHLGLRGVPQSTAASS

[12] = target: T2, panel of more than 300 wild-type and mutant kinases (313 kinase panel) (Homo sapiens, UniProt Q9NWZ3); conditions: kinase IRAK4; compound at 1 μM
T2 sequence (Q9NWZ3 1-460): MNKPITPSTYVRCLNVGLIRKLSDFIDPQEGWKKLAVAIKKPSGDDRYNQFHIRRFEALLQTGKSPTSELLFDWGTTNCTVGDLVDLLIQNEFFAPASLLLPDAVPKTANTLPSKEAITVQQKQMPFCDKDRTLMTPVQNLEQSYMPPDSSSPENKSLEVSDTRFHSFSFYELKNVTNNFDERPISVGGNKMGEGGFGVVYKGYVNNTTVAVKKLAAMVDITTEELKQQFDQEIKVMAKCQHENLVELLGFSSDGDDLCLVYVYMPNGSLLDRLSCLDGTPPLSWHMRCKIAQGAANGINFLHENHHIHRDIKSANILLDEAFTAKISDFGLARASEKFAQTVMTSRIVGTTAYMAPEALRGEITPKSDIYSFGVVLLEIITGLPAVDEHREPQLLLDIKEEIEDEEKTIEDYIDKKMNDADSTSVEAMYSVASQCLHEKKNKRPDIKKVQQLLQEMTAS

[13] = target: panel of more than 300 wild-type and mutant kinases (313 kinase panel) (Homo sapiens, UniProt Q04912)
[14] = kinase AMPKα1/β1/γ1, 1 μM compound

Structure (SMILES)	%-inhibition of EPHA1 [1] [%]	%-inhibition of PDGFRα ([2]; kinase PDGFRα, 1 μM) [%]	%-inhibition, AMPKα1/β1/γ1 [3, 14] [%]	%-inhibition of RET ([4]; kinase RET, 1 μM) [%]	%-inhibition of RSK2 [5] [%]	%-inhibition of Erk5 ([6]; kinase Erk5, compound at 1 μM) [%]	%-inhibition of LYNa ([7]; kinase LYNa, compound at 1 μM) [%]	%-inhibition of EPHA4 [8] [%]	%-inhibition of FLT1 [9] [%]	%-inhibition of TRKA ([10]; kinase TRKA, 1 μM) [%]	%-inhibition of DYRK1B [11] [%]	%-inhibition of IRAK4 [12] [%]	%-inhibition of RON ([13]; kinase RON, 1 μM) [%]	%-inhibition of PDGFRα ([2]; 1 µM) [%]	%-inhibition, AMPKα1/β1/γ1 ([3]; 1 µM) [%]	%-inhibition of RET ([4]; 1 µM) [%]	%-inhibition of TRKA ([10]; 1 µM) [%]	%-inhibition of RON ([13]; 1 µM) [%]	%-inhibition of Erk5 ([6]; 1 µM) [%]	%-inhibition of LYNa ([7]; 1 µM) [%]
CO[C@H]1C[C@@H]2CC[C@@H](C)[C@@](O)(O2)C(=O)C(=O)N2CCCC[C@H]2C(=O)O[C@H]([C@H](C)C[C@@H]2CC[C@@H](OCCO)[C@H](OC)C2)CC(=O)[C@H](C)/C=C(\C)[C@@H](O)[C@@H](OC)C(=O)[C@H](C)C[C@H](C)/C=C/C=C/C=C/1C [everolimus]	-10	1.15	-6	-4	-1.35	-2.5	-1.27	-2.61	-2.63	-3.53	-8	-6	-6.45							
CC(=O)Nc1cccc(-n2c(=O)n(C3CC3)c(=O)c3c(Nc4ccc(I)cc4F)n(C)c(=O)c(C)c32)c1 [trametinib]	-1.61	4.53	-12	-8	-1.76	-2.55	-1.74	-5.3	-2.75	-1.17	3.34	-5	-6.44							
O=S(=O)(c1cccc2cnccc12)N1CCCNCC1 [fasudil]	0.43	16	-14	-5		-3.32	-1.61	-6	-0.73	-2.44	4.76	-4.68	-6							
CC(C)(C)c1nc(-c2cccc(NS(=O)(=O)c3c(F)cccc3F)c2F)c(-c2ccnc(N)n2)s1 [dabrafenib]	44	63		49		0.144		12	62		29		37							
CCCS(=O)(=O)Nc1ccc(F)c(C(=O)c2c[nH]c3ncc(-c4ccc(Cl)cc4)cc23)c1F [vemurafenib]	-9	87	-1.59	32	-2.31	0.709	73	-2	25	16	-1.74	-4.29	-2							
Cc1cn(-c2cc(NC(=O)c3ccc(C)c(Nc4nccc(-c5cccnc5)n4)c3)cc(C(F)(F)F)c2)cn1 [nilotinib]	61				13	-3.64	85		32		-7.58	-29		103	-12	31	41	-13		
CS(=O)(=O)CCNCc1ccc(-c2ccc3ncnc(Nc4ccc(OCc5cccc(F)c5)c(Cl)c4)c3c2)o1 [lapatinib]	6		-5		-1			-0.823		5.64	3	-2	1.17	40		-0.304			-0.8	9
